Oral bioavailability, Uterus wet weight and Solubility in water data for 1 molecule are collected here from patent publication US20150126597A1, “GENISTEIN CANCER TREATMENT REGIMEN MAXIMIZING CANCER RADIATION THERAPY BENEFITS” (Humanetics Corporation, priority 2013, published 2015).

For series [1] the following is noted: Genistein provided as a nano suspension in accordance with US 2012/0164190 and 2012/0121654; cited from earlier work.
The subject of series [2] is uterus, GI tract, esophagus, skin, tumor, lungs. In words: Example 1: post mortem tissue weights and histopathology (safety). Type of series: in vivo, mouse. The conditions noted are these: Example 1, 10 weeks dosing 5 d/wk. On the procedure:
At the time of euthanasia organs were harvested and wet tissue weights were measured. In addition to the tissues the weight of the remaining tumor was determined so that the tumor weight can be correlated with the calculated tumor volumes.
The various tissues were fixed in formalin, then processed and embedded in paraffin. Hematoxylin and eosin (H&E) staining was done on 5 micron sections from each of the tissues.
Following euthanasia organ weights were collected for the lungs, uterus, and GI tract. In addition, the tumor was resected and weighed. […]
The examined tissues included the lungs, GI tract (esophagus), uterus, tumor, and the skin near the A549 tumor xenograft. […] All tissues were analyzed microscopically following H&E staining. For these analyses 5 tumors, 5 lung samples, and 5 skin samples were analyzed from each experimental group. In addition, three uterus samples and three esophagus samples from each experimental group were analyzed. All tissue samples were prepared, sectioned, and stained with H&E. Tissues were analyzed for gross morphology and H&E sections were evaluated for inflammatory cells, capillary distension, and congestion. A veterinary pathologist scored the severity and distribution of anomalies observed. […]

The conditions of series [3]: cited from earlier work.

Regarding `O=c1c(-c2ccc(O)cc2)coc2cc(O)cc(O)c12` [Genistein, 5,7-dihydroxy-3-(4-hydroxyphenyl)-chromen-4-one], the Oral bioavailability entry in series [1] was “significantly improved oral bioavailability”. Moreover, in series [2], the Uterus wet weight result is on record as “did not dramatically affect the wet uterine weights”. Moreover, in series [3], the Solubility in water entry is “virtually insoluble in water”.
